We go through six compounds from patent publication US20050112199A1, “Therapeutic regimens for administering drug combinations” (priority 2003, published 2005).

The conditions of data set [1]: monotherapy, cited from earlier work.
Data set [2] is described as follows: PK study of paroxetine and prednisolone administered orally to humans. In kind it is in vivo, human. Conditions: paroxetine/prednisolone combination PK study, oral.
Data set [3] is described as follows: PK study of amoxapine and prednisolone administered orally to humans. Conditions: amoxapine/prednisolone combination PK study, oral.

Where two headings read alike, the source gives them in different places.

Consider `OCCN(CCO)c1nc(N2CCCCC2)c2nc(N(CCO)CCO)nc(N3CCCCC3)c2n1` [Dipyridamole, 2,6-bis(diethanolamino)-4,8-dipiperidinopyrimido(5,4-d)pyrimidine], for which, in data set [1] (oral, 25 mg), the “Mean Tmax” value is 0.75 h and the “Mean elimination half life” value is 10 h.

As for `Fc1ccc([C@@H]2CCNC[C@H]2COc2ccc3c(c2)OCO3)cc1` [Paroxetine], in data set [2] (20 mg), the “Mean Tmax” value turned out to be 7 h and the “Mean elimination half life” value worked out at 20.2 h.

Take `Clc1ccc2c(c1)C(N1CCNCC1)=Nc1ccccc1O2` [Amoxapine]: in data set [3] (100 mg), the “Mean Tmax” value was 2.4 h and the “Mean elimination half life” value was 9.7 h.

In the case of `C[C@]12C=CC(=O)C=C1CC[C@@H]1[C@@H]2[C@@H](O)C[C@@]2(C)[C@H]1CC[C@]2(O)C(=O)CO` [Prednisolone], the “Mean Tmax” value in data set [3] (3 mg) was 1.9 h; in data set [2] (3 mg), 1.9 h; in data set [1] (oral, 3 mg), 1.9 h. Further, the “Mean elimination half life” value in data set [3] (3 mg) was 4.5 h; in data set [2] (3 mg), 2.7 h; in data set [1] (oral, 3 mg), 2.7 h.

Regarding `CCCC1O[C@@H]2C[C@H]3[C@@H]4CCC5=CC(=O)C=C[C@]5(C)[C@H]4[C@@H](O)C[C@]3(C)[C@]2(C(=O)CO)O1` (stereo partly shown) [Budesonide], in data set [1] (inhaled, 200 μg), the “Mean Tmax” value was 0.5 h and the “Mean elimination half life (Hours)” value is “ca. 2 Hours”.

`CNCCC=C1c2ccccc2CCc2ccccc21` [Nortriptyline]: in data set [1] (oral, 25 mg), the “Mean Tmax” value was 8 h and the “Mean elimination half life” value is 16 h.
